Earlier results as cited in article PMC12181400, “Leveraging viral genome sequences and machine learning models for identification of potentially selective antiviral agents” (Communications Chemistry, 2025).
Structures can show the parent of a compound that is named as a salt. Where two headings read alike, the source gives them in different places. Peptide text beside a SMILES is read from it.

Legend:
Settings in all cases: cited from earlier work
[1] = test system: cell viability (tox21-ar-mda-kb2-luc-antagonist-p2)
[2] = test system: cell viability (tox21-car-antagonist-p1)
[3] = test system: cell viability (tox21-ar-mda-kb2-luc-agonist-p3)
[4] = test system: cell viability (tox21-ap1-agonist-p1)
[5] = test system: cell viability (tox21-car-agonist-p1)
[6] = test system: cell viability (tox21-are-bla-p1)
[7] = curve rank −9 to 9, 0 = inactive, ref NCATS Tox21 public data browser

CCOP(=S)(OCC)Oc1cc(C)nc(C(C)C)n1 [Diazinon]
0: tox21-ar-mda-kb2-luc-antagonist-p2-viability (curve rank) [1, 7] | tox21-car-antagonist-p1-viability (curve rank) [2, 7] | tox21-ar-mda-kb2-luc-agonist-p3-viability (curve rank) [3, 7] | tox21-ap1-agonist-p1-viability (curve rank) [4, 7] | tox21-car-agonist-p1-viability (curve rank) [5, 7] | tox21-are-bla-p1-viability (curve rank) [6, 7]

CC[N+]1(C)CCCC(OC(=O)C(O)(c2ccccc2)c2ccccc2)C1 (stereo not drawn) [Pipenzolate bromide]
0: tox21-ar-mda-kb2-luc-antagonist-p2-viability (curve rank) [1] | tox21-car-antagonist-p1-viability (curve rank) [2] | tox21-ar-mda-kb2-luc-agonist-p3-viability (curve rank) [3] | tox21-ap1-agonist-p1-viability (curve rank) [4] | tox21-car-agonist-p1-viability (curve rank) [5] | tox21-are-bla-p1-viability (curve rank) [6]

CC(N/C(=N\C#N)Nc1ccncc1)C(C)(C)C (stereo not drawn) [Pinacidil monohydrate]
0: tox21-ar-mda-kb2-luc-antagonist-p2-viability (curve rank) [1] | tox21-car-antagonist-p1-viability (curve rank) [2] | tox21-ar-mda-kb2-luc-agonist-p3-viability (curve rank) [3] | tox21-ap1-agonist-p1-viability (curve rank) [4] | tox21-car-agonist-p1-viability (curve rank) [5] | tox21-are-bla-p1-viability (curve rank) [6]

COC(=O)[C@H](Cc1ccccc1)NC(=O)[C@@H](N)CC(=O)O [Aspartame] (H-Asp-Phe-OMe)
0: tox21-ar-mda-kb2-luc-antagonist-p2-viability (curve rank) [1, 7] | tox21-car-antagonist-p1-viability (curve rank) [2, 7] | tox21-ar-mda-kb2-luc-agonist-p3-viability (curve rank) [3, 7] | tox21-ap1-agonist-p1-viability (curve rank) [4, 7] | tox21-car-agonist-p1-viability (curve rank) [5, 7] | tox21-are-bla-p1-viability (curve rank) [6, 7]

CCCCCC(N)=O [Hexanamide]
0: tox21-ar-mda-kb2-luc-antagonist-p2-viability (curve rank) [1, 7] | tox21-car-antagonist-p1-viability (curve rank) [2, 7] | tox21-ar-mda-kb2-luc-agonist-p3-viability (curve rank) [3, 7] | tox21-ap1-agonist-p1-viability (curve rank) [4, 7] | tox21-car-agonist-p1-viability (curve rank) [5, 7] | tox21-are-bla-p1-viability (curve rank) [6, 7]

Nc1ccc(C(=O)Oc2ccccc2)c(O)c1 [Phenyl 4-aminosalicylate]
0: tox21-ar-mda-kb2-luc-antagonist-p2-viability (curve rank) [1, 7] | tox21-car-antagonist-p1-viability (curve rank) [2, 7] | tox21-ar-mda-kb2-luc-agonist-p3-viability (curve rank) [3, 7] | tox21-ap1-agonist-p1-viability (curve rank) [4, 7] | tox21-car-agonist-p1-viability (curve rank) [5, 7] | tox21-are-bla-p1-viability (curve rank) [6, 7]

CC(C)N(CCC(C(N)=O)(c1ccccc1)c1ccccn1)C(C)C (stereo not drawn) [Disopyramide]
0: tox21-ar-mda-kb2-luc-antagonist-p2-viability (curve rank) [1] | tox21-car-antagonist-p1-viability (curve rank) [2] | tox21-ar-mda-kb2-luc-agonist-p3-viability (curve rank) [3] | tox21-ap1-agonist-p1-viability (curve rank) [4] | tox21-car-agonist-p1-viability (curve rank) [5] | tox21-are-bla-p1-viability (curve rank) [6]

O=C(O)c1cc(=O)c2ccccc2o1 [Chromocarb]
0: tox21-ar-mda-kb2-luc-antagonist-p2-viability (curve rank) [1, 7] | tox21-car-antagonist-p1-viability (curve rank) [2, 7] | tox21-ar-mda-kb2-luc-agonist-p3-viability (curve rank) [3, 7] | tox21-ap1-agonist-p1-viability (curve rank) [4, 7] | tox21-car-agonist-p1-viability (curve rank) [5, 7] | tox21-are-bla-p1-viability (curve rank) [6, 7]

O=C(CCBr)N1CCN(C(=O)CCBr)CC1 [Pipobroman]
0: tox21-ar-mda-kb2-luc-antagonist-p2-viability (curve rank) [1] | tox21-car-antagonist-p1-viability (curve rank) [2] | tox21-ar-mda-kb2-luc-agonist-p3-viability (curve rank) [3] | tox21-ap1-agonist-p1-viability (curve rank) [4] | tox21-car-agonist-p1-viability (curve rank) [5] | tox21-are-bla-p1-viability (curve rank) [6]

c1ccc2c(c1)CCCC2C1=NCCN1 (stereo not drawn) [Tetrahydrozoline hydrochloride]
0: tox21-ar-mda-kb2-luc-antagonist-p2-viability (curve rank) [1] | tox21-car-antagonist-p1-viability (curve rank) [2] | tox21-ar-mda-kb2-luc-agonist-p3-viability (curve rank) [3] | tox21-ap1-agonist-p1-viability (curve rank) [4] | tox21-car-agonist-p1-viability (curve rank) [5] | tox21-are-bla-p1-viability (curve rank) [6]

Cc1ncc([N+](=O)[O-])n1CC(C)O (stereo not drawn) [Secnidazole]
0: tox21-ar-mda-kb2-luc-antagonist-p2-viability (curve rank) [1, 7] | tox21-car-antagonist-p1-viability (curve rank) [2, 7] | tox21-ar-mda-kb2-luc-agonist-p3-viability (curve rank) [3, 7] | tox21-ap1-agonist-p1-viability (curve rank) [4, 7] | tox21-car-agonist-p1-viability (curve rank) [5, 7] | tox21-are-bla-p1-viability (curve rank) [6, 7]

COc1cc(C(=O)NCCCCCC(=O)O)cc(OC)c1OC [Capobenic acid]
0: tox21-ar-mda-kb2-luc-antagonist-p2-viability (curve rank) [1, 7] | tox21-car-antagonist-p1-viability (curve rank) [2, 7] | tox21-ar-mda-kb2-luc-agonist-p3-viability (curve rank) [3, 7] | tox21-ap1-agonist-p1-viability (curve rank) [4, 7] | tox21-car-agonist-p1-viability (curve rank) [5, 7] | tox21-are-bla-p1-viability (curve rank) [6, 7]
